We go through twelve compounds from US6809119B2, “Branched chain amino acid-dependent aminotransferase inhibitors and their use in the treatment of neurodegenerative diseases” (Warner-Lambert Company LLC, priority 2001, dated 2004).

In general, melting point refers to the temperature, or range, at which the solid turns liquid.

In data set [1] the target is T1, human Branched Chain Amino Acid Aminotransferase cytosolic form (hBCATc) (Homo sapiens, UniProt P54687).
T1 construct: inferred from purification on a Ni-charged chelating column with imidazole elution; made in house; host or cells: E. coli BL21(DE3)
T1 sequence (P54687 1-386): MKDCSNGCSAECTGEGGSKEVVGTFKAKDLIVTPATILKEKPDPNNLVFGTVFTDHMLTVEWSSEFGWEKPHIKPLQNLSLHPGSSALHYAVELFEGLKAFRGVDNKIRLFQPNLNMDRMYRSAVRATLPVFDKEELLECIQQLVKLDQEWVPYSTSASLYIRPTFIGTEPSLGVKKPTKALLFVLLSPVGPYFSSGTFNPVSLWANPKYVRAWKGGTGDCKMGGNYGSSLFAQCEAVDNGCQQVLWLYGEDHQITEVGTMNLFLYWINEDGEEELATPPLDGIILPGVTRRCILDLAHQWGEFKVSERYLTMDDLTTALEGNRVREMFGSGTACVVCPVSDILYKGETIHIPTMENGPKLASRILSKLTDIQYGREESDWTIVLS
Nature of the data set: In vitro coupled enzyme assay, human BCAT cytosolic form. As to conditions: inhibition of recombinant human BCATc; coupled glutamate dehydrogenase/NADH assay, 37° C., pH 7.8; read-out: rhBCATc. Type of data set: biochemical. As to the method: (§1) In vitro enzyme assay: human Branched Chain Amino Acid Aminotransferase cytosolic form (hBCATc) and mitochondrial form (hBCATm) as well as rat BCAT cytosolic form were assayed at 37° C. in 25 mM phosphate buffer pH 7.8. In addition, 2 mM DTT and 12.5 mM EDTA were added to the assay mixture. A coupling enzyme assay was used to monitor the production of glutamate. The formation of NADH from NAD+at […] was followed on a 96-well plate Molecular Devices plate reader. The following components were used in this coupled assay: 4 mM ADP, 1 mM NAD+, 750 μM L-Leucine, 500 μM a-ketoglutarate, 10 μM pyridoxal phosphate, 1 unit glutamate dehydrogenase, and 1.25 μg of the appropriate BCAT enzyme. Inhibitions by compounds were assayed by adding various concentrations to this coupled assay procedure as a DMSO stock up to a 5% v/v DMSO/buffer ratio.
(§2) Enzyme Preparation: humanBCATc and ratBCATc were expressed in BL21(DE3) cells. A growing culture of cells was induced with 1 mM IPTG at room temperature overnight. These cells were harvested by centrifugation at 10,000 g for 20 minutes. The supernatant was discarded, and the cells were stored at −80° C. until needed. The protein was purified by the following method. The cell paste was resuspended in extraction buffer (0.1 M phosphate, pH 8.0, with 0.01 M Tris-HCL and 5 mM TCEP and then lysed on a French Press at 1000 psi. The lysate was centrifuged at 10,000 g for 15 minutes, and the pellet was discarded. The supernatant was loaded onto a Hitrap Chelating column previously charged with 0.1 M NiSO4 and washed with 3 to 4 column volumes of extraction buffer. The column was then washed with 0.01 Tris, pH 7.5, 10% glycerol, 150 mM NaCl, 5 mM TCEP for two column volumes. The column was then further washed with two column volumes of 0.1 M phosphate, pH 6.0, 0.01 M Tris, 10% glycerol, and 750 mM NaCl. Finally, the column was washed with two column volumes of the same buffer plus 50 mM imidazole. The BCAT enzyme was then eluted with the same buffer but with 350 mM imidazole. The eluant was then dialyzed overnight against 10 mM phosphate buffer pH 8.0, 10% glycerol, and 5 mM TCEP. The dialyzed protein was then loaded onto a Q-sepharose column and eluted using a salt gradient. Active fractions were collected and further purified on a Superose-12 column to yield pure BCAT protein.

Data set [2] deals with T2, rat BCAT cytosolic form (rrBCATc) (Rattus norvegicus, UniProt P54690).
T2 construct: inferred from purification on a Ni-charged chelating column with imidazole elution; made in house; host or cells: E. coli BL21(DE3)
T2 sequence (P54690 1-411): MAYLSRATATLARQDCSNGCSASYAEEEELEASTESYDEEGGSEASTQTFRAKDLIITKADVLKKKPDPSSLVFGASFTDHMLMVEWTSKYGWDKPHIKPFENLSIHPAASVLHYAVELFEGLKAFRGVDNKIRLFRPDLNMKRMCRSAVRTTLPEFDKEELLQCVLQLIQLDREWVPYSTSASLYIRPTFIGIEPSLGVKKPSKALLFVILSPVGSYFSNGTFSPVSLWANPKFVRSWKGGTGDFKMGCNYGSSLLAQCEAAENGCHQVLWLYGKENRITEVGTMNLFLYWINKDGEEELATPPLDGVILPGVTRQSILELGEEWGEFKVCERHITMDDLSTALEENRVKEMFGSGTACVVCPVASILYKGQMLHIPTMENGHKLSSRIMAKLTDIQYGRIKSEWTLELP
Description: In vitro coupled enzyme assay, rat BCAT cytosolic form. As to conditions: inhibition of recombinant rat BCATc; coupled glutamate dehydrogenase/NADH assay, 37° C., pH 7.8. The format is biochemical. As to the method: as §1, §2

The compound `Nc1ccc(C(=O)NNS(=O)(=O)c2ccccc2)cc1` [Example 2, Benzoic acid, 4-amino-2-(phenylsulfonyl)hydrazide] showed a melting point of 171 to 173 °C. In data set [1], the IC50 was found to be 60 µM. Besides, in data set [2], the IC50 was 28.1 µM.

`O=C(NNS(=O)(=O)c1ccccc1)c1ccc(NCc2ccccc2)cc1` [Example 16, 4-Benzylamino-benzoic acid 2-(phenylsulfonyl)hydrazide] had a melting point of 214 to 215 °C. In addition, the IC50 in data set [1] is 27 µM. Further, in data set [2], the IC50 came out at 4.4 µM.

Regarding `CC(C)(C)c1ccc(C(=O)NNS(=O)(=O)c2ccccc2)cc1` [Example 24, 4-(1,1-Dimethylethyl)-benzoic acid, 2-(phenylsulfonyl)hydrazide], the melting point was in the range of 197 to 199 °C. In data set [1], the IC50 is 57 µM. For the same compound, the IC50 in data set [2] stood at 1.2 µM.

As for `O=C(NNS(=O)(=O)c1ccccc1)c1ccc(-c2ccccc2)cc1` [Example 25, [1,1′-Biphenyl]-4-carboxylic acid, 2-(phenylsulfonyl)hydrazide], the melting point was 216 to 219 °C. In addition, in data set [1], the IC50 worked out at 16 µM. The IC50 in data set [2] worked out at 1.5 µM.

For the compound `O=C(NNS(=O)(=O)c1ccccc1)c1ccc(Oc2ccccc2)cc1` [Example 28, 4-Phenoxybenzoic acid, 2-(phenylsulfonyl)hydrazide], the results for the IC50 in data set [1] and in data set [2] were 37 µM and 1.5 µM, respectively.

In the case of `O=C(NNS(=O)(=O)c1ccccc1)c1ccc(OCc2ccccc2)cc1` [Example 29], the melting point was 159 to 160 °C. In data set [1], the IC50 was found to be 26 µM. Besides, the IC50 in data set [2] was 48 µM.

Turning to `O=C(NNS(=O)(=O)c1ccccc1)c1ccc(C#Cc2ccccc2)cc1` [Example 32, 4-Phenacetylenyl-benzoic acid, 2-(phenylsulfonyl)hydrazide], the melting point is 175 °C (dec.). Moreover, in data set [1], the IC50 came out at 27.6 µM. In data set [2], the IC50 stood at 1.3 µM.

For the compound `O=C(NNS(=O)(=O)c1ccccc1)c1ccc(CCc2ccccc2)cc1` [Example 33, Phenethyl-benzoic acid, 2-(phenylsulfonyl)hydrazide], the melting point is 158 to 159 °C. Further, in data set [1], the IC50 amounted to 14.3 µM. In addition, in data set [2], the IC50 is 0.25 µM.

`O=C(NNS(=O)(=O)c1ccccc1)c1ccc(C#CC2(O)CCCCC2)cc1` [Example 35] displayed a melting point of 96 to 97 °C. In addition, in data set [1], the IC50 stood at 43.5 µM. In addition, the IC50 in data set [2] came to 2.2 µM.

For `O=C(NNS(=O)(=O)c1ccccc1)c1ccc(CCC2(O)CCCCC2)cc1` [Example 36], the melting point is 158 to 159 °C. In addition, the IC50 in data set [1] came out at 15.4 µM. In addition, in data set [2], the IC50 was 0.25 µM.

For the compound `CC(C)(C)C#Cc1ccc(C(=O)NNS(=O)(=O)c2ccccc2)cc1` [Example 37, 4-(3,3-Dimethyl-1-butynyl)benzoic acid, 2-(phenylsulfonyl)hydrazide], the melting point is 160 °C (dec.). In addition, the IC50 in data set [1] stood at 34.8 µM. The IC50 in data set [2] worked out at 4.3 µM.

Compound `CC(C)(C)CCc1ccc(C(=O)NNS(=O)(=O)c2ccccc2)cc1` [Example 38, 4-(3,3-Dimethyl-1-butyl)-benzoic acid, 2-(phenylsulfonyl)hydrazide] registered a melting point of 168 to 169 °C. Besides, the IC50 in data set [1] came out at 9.5 µM. The IC50 in data set [2] is 0.25 µM.
